Source: ChEMBL document CHEMBL5154776, “Discovery of Potent and Orally Bioavailable Platelet-Derived Growth Factor Receptor (PDGFR) Inhibitors for the Treatment of Osteosarcoma” (J Med Chem, 2022)
One block for each molecule: values may come before it.

Assays:
[1] = biological target: T1, Platelet-derived growth factor receptor beta (Homo sapiens, UniProt P09619); assay: Inhibition of PDGFRbeta (unknown origin) at 100 nM by caliper mobility shift assay relative to control
[2] = biological target: T1, Platelet-derived growth factor receptor beta; assay: Inhibition of PDGFRbeta (unknown origin) by caliper mobility shift assay
[3] = test system: U2OS; assay: Antiproliferative activity against human U2OS cells assessed as reduction in cell viability incubated for 48 hrs by MTT assay
[4] = test system: MG-63; assay: Antiproliferative activity against human MG-63 cells assessed as reduction in cell viability incubated for 48 hrs by MTT assay; conditions: MG-63, 48 h
[5] = test system: SAOS-2; assay: Antiproliferative activity against human SAOS-2 cells assessed as reduction in cell viability incubated for 48 hrs by MTT assay; conditions: SAOS-2, 48 h
[6] = test system: HOS-TE85; assay: Antiproliferative activity against human MNNG/HOS cells assessed as reduction in cell viability incubated for 48 hrs by MTT assay; conditions: HOS-TE85, 48 h
[7] = test system: CYP2C9; assay: Inhibition of CYP2C9 in rat liver microsomes at 100 uM using diclofenac as substrate preincubated for 5 min followed by NADPH addition and measured after 40 mins by UHPLC-MS/MS analysis; assay type: ADME, Microsome; conditions: probe diclofenac, time 45 min
[8] = biological target: T2, Platelet-derived growth factor receptor alpha (Homo sapiens, UniProt P16234); assay: Inhibition of PDGFRalpha (unknown origin) by caliper mobility shift assay
[9] = test system: CYP2C19; assay: Inhibition of CYP2C19 in rat liver microsomes at 100 uM using voriconazole as substrate preincubated for 5 min followed by NADPH addition and measured after 40 mins by UHPLC-MS/MS analysis; assay type: ADME, Microsome; conditions: probe voriconazole, time 45 min
[10] = biological target: T2, Platelet-derived growth factor receptor alpha; conditions: dose 100.0 nM
Description: Inhibition of PDGFRalpha (unknown origin) at 100 nM by caliper mobility shift assay relative to control

T1 sequence (P09619 whole entry): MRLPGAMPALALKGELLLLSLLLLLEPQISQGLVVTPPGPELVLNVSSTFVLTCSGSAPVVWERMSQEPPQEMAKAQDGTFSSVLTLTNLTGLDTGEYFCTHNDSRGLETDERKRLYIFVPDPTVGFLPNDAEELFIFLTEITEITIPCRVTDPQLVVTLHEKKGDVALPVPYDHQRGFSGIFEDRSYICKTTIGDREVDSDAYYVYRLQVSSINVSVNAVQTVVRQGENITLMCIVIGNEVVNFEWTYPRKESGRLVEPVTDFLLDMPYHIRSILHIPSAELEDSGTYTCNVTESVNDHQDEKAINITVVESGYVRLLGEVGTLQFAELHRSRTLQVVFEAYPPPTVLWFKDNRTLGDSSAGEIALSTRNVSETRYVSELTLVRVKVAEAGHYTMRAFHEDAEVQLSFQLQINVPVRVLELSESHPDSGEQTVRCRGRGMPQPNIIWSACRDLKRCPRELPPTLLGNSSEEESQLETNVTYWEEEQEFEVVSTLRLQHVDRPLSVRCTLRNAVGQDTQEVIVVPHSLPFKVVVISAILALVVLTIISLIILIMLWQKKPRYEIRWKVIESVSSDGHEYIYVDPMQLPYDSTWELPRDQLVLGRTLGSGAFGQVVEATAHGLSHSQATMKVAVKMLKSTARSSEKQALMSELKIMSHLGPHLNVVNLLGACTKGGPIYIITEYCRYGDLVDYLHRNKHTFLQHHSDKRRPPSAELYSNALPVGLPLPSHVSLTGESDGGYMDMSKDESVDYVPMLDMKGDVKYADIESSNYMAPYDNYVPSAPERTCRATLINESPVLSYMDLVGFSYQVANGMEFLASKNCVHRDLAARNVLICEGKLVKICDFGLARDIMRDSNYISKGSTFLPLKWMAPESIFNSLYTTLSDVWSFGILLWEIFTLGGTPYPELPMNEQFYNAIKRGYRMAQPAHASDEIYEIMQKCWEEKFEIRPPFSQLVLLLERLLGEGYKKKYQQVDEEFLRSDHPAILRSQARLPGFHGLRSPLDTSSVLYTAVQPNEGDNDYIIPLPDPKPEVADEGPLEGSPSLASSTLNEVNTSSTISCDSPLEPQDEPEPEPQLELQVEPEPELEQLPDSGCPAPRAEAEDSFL
T2 sequence (P16234 whole entry): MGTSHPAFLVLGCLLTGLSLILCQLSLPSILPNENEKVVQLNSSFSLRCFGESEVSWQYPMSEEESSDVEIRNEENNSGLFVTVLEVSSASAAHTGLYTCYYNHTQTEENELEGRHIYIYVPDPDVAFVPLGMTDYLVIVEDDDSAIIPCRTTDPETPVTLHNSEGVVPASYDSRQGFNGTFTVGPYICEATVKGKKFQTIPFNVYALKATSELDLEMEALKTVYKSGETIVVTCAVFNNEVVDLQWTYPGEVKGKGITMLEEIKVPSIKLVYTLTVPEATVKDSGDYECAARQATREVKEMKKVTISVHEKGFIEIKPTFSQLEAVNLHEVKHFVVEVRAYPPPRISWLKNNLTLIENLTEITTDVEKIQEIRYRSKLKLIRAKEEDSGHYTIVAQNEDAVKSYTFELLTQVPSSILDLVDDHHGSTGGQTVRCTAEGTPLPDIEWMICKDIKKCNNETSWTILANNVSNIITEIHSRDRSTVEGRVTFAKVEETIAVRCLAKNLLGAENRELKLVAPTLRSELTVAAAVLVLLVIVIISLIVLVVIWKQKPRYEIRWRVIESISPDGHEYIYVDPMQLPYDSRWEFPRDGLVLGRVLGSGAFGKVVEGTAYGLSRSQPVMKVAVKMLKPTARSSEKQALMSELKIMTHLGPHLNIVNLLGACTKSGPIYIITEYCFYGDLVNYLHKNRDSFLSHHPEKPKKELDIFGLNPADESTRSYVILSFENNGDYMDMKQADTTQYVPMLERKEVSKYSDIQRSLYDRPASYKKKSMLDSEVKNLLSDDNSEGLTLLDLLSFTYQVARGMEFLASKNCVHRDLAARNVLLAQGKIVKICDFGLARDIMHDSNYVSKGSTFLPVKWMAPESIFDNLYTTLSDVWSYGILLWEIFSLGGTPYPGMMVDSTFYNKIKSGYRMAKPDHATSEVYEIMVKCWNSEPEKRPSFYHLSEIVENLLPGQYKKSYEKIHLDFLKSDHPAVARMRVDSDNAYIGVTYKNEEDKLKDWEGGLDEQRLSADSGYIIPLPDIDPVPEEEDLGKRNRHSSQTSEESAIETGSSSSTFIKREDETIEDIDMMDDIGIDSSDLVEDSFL

SMILES: Cc1cnc(Nc2ccc(N3CCN(C)CC3)cc2)nc1Nc1ccc2c(C)n[nH]c2c1
inhibition [1]: 98%

SMILES: CN1CCN(c2ccc(Nc3ncc(C(F)(F)F)c(Nc4ccc5cn[nH]c5c4)n3)cc2)CC1
inhibition [1]: 81%

SMILES: Cc1cnc(Nc2ccc(C(=O)N3CCN(C)CC3)cc2)nc1Nc1ccc2cn[nH]c2c1
IC50 [2]: 47.7 nM

SMILES: CN1CCN(c2ccc(Nc3nc(Nc4ccc5cn[nH]c5c4)c4sccc4n3)cc2)CC1
inhibition [1]: 21.2%

SMILES: Cc1cnc(Nc2ccc(N3CCN(C)CC3)cc2)nc1Nc1ccc2nccnc2c1
inhibition [1]: 74.1%

SMILES: Cc1cc(Nc2ccc3cn[nH]c3c2)nc(Nc2ccc(N3CCN(C)CC3)cc2)n1
inhibition [1]: 7.2%

SMILES: Cc1cnc(Nc2ccc(N3CCN(C)CC3)cc2)nc1Nc1ccc2nn(CCNC(=O)OC(C)(C)C)cc2c1
inhibition [1]: 71.1%

SMILES: Cc1cnc(Nc2ccc(N3CCOCC3)cc2)nc1Nc1ccc2cn[nH]c2c1
IC50 [2]: 6.9 nM

SMILES: Cc1cnc(Nc2ccc(N3CCN(C)CC3)cc2)nc1Nc1ccc2c(c1)CCC2
inhibition [1]: 88.9%

The next lines start with results.

IC50 [3]: 550 nM
IC50 [2]: 7.6 nM
SMILES: CCN1CCN(c2ccc(Nc3ncc(C)c(Nc4ccc5cn[nH]c5c4)n3)cc2)CC1
IC50 [4]: 960 nM
IC50 [5]: 950 nM
IC50 [6]: 1400 nM

inhibition [1]: 94.4%
SMILES: CN1CCN(c2ccc(Nc3ncc(F)c(Nc4ccc5cn[nH]c5c4)n3)cc2)CC1

IC50 [2]: 44.1 nM
SMILES: COc1cc(N2CCN(C)CC2)ccc1Nc1ncc(C)c(Nc2ccc3cn[nH]c3c2)n1

inhibition [1]: 84.1%
SMILES: Cc1cnc(Nc2ccc(N3CCN(C)CC3)cc2)nc1Nc1ccc2[nH]ncc2c1

IC50 [3]: 420 nM
IC50 [2]: 0.9 nM
inhibition at 40 min, 100 µM [7]: 45.6%
IC50 [8]: 2.4 nM
inhibition at 40 min, 100 µM [9]: 45.6%
SMILES: CCN1CCN(c2ccc(Nc3ncc(C)c(Nc4ccc5cn[nH]c5c4)n3)cc2OC)CC1
IC50 [4]: 440 nM
IC50 [5]: 370 nM
IC50 [6]: 1030 nM

inhibition [1]: 95.8%
SMILES: CN1CCN(c2ccc(Nc3ncc(Cl)c(Nc4ccc5cn[nH]c5c4)n3)cc2)CC1

inhibition [1]: 55%
SMILES: COc1cnc(Nc2ccc(N3CCN(C)CC3)cc2)nc1Nc1ccc2cn[nH]c2c1

inhibition [10]: 89.9%
inhibition [1]: 97.6%
SMILES: CN1CCN(c2ccc(Nc3ncc(Br)c(Nc4ccc5cn[nH]c5c4)n3)cc2)CC1
